Source: PubChem BioAssay (NCI)
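How tested: cells in 96-well plates exposed to compound for 48 hours at five concentrations. TGI is the concentration that stops growth completely.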

Key:
Assay in all cases: NCI anticancer screen, dose series, 48 h
[1] = test system: 786-0 renal
[2] = test system: A549 NSCLC
[3] = test system: ACHN renal
[4] = test system: BT-549 breast
[5] = test system: CAKI-1 renal
[6] = test system: COLO 205 colon
[7] = test system: DU-145 prostate
[8] = test system: EKVX NSCLC
[9] = test system: HCC-2998 colon
[10] = test system: HCT-116 colon
[11] = test system: HCT-15 colon
[12] = test system: HOP-62 NSCLC
[13] = test system: HOP-92 NSCLC
[14] = test system: HS 578T breast
[15] = test system: HT29 colon
[16] = test system: IGROV1 ovarian
[17] = test system: K-562 leukemia
[18] = test system: M14 melanoma
[19] = test system: MALME-3M melanoma
[20] = test system: MCF7 breast
[21] = test system: MDA-MB-231 breast
[22] = test system: MDA-MB-435
[23] = test system: MDA-N
[24] = test system: MOLT-4 leukemia
[25] = test system: NCI-H226 lung
[26] = test system: NCI-H23 lung
[27] = test system: NCI-H460 lung
[28] = test system: NCI-H522 lung
[29] = test system: NCI/ADR-RES ovarian
[30] = test system: OVCAR-3 ovarian
[31] = test system: OVCAR-5 ovarian
[32] = test system: OVCAR-8 ovarian
[33] = test system: PC-3 prostate
[34] = test system: RPMI-8226 leukemia
[35] = test system: RXF 393 renal
[36] = test system: SF-268 CNS
[37] = test system: SF-295 CNS
[38] = test system: SF-539 CNS
[39] = test system: SK-MEL-2 melanoma
[40] = test system: SK-MEL-28 melanoma
[41] = test system: SK-MEL-5 melanoma
[42] = test system: SK-OV-3 ovarian
[43] = test system: SN12C renal
[44] = test system: SNB-19 CNS
[45] = test system: SNB-75 CNS
[46] = test system: SR leukemia
[47] = test system: SW-620 colon
[48] = test system: T-47D breast
[49] = test system: TK-10 renal
[50] = test system: UACC-257 melanoma
[51] = test system: UACC-62 melanoma
[52] = test system: UO-31 renal
[53] = test system: CCRF-CEM leukemia
[54] = test system: HL-60(TB) leukemia
[55] = test system: KM12 colon
[56] = test system: LOX IMVI melanoma
[57] = test system: OVCAR-4 ovarian
[58] = test system: U251 CNS

COC(=O)C(Cc1ccccc1)OC(=O)C(N)CC(=O)O (stereo unspecified)
TGI [1]: > 100 µM
TGI [2]: > 100 µM
TGI [3]: > 100 µM
TGI [4]: > 100 µM
TGI [5]: > 100 µM
TGI [6]: > 100 µM
TGI [7]: > 100 µM
TGI [8]: > 100 µM
TGI [9]: > 100 µM
TGI [10]: > 100 µM
TGI [11]: > 100 µM
TGI [12]: > 100 µM
TGI [13]: > 100 µM
TGI [14]: > 100 µM
TGI [15]: > 100 µM
TGI [16]: > 100 µM
TGI [17]: > 100 µM
TGI [18]: > 100 µM
TGI [19]: > 100 µM
TGI [20]: > 100 µM
TGI [21]: > 100 µM
TGI [22]: > 100 µM
TGI [23]: > 100 µM
TGI [24]: > 100 µM
TGI [25]: > 100 µM
TGI [26]: > 100 µM
TGI [27]: > 100 µM
TGI [28]: > 100 µM
TGI [29]: > 100 µM
TGI [30]: > 100 µM
TGI [31]: > 100 µM
TGI [32]: > 100 µM
TGI [33]: > 100 µM
TGI [34]: > 100 µM
TGI [35]: > 100 µM
TGI [36]: > 100 µM
TGI [37]: > 100 µM
TGI [38]: > 100 µM
TGI [39]: > 100 µM
TGI [40]: > 100 µM
TGI [41]: > 100 µM
TGI [42]: > 100 µM
TGI [43]: > 100 µM
TGI [44]: > 100 µM
TGI [45]: > 100 µM
TGI [46]: > 100 µM
TGI [47]: > 100 µM
TGI [48]: > 100 µM
TGI [49]: > 100 µM
TGI [50]: > 100 µM
TGI [51]: > 100 µM
TGI [52]: > 100 µM

CCOC(=O)[C@@]12CCC(C1=O)[C@](C)(O)C[C@@H]2c1ccccc1
TGI [1]: 68.8 µM
TGI [2]: > 100 µM
TGI [3]: > 100 µM
TGI [4]: > 100 µM
TGI [5]: > 100 µM
TGI [53]: > 100 µM
TGI [6]: > 100 µM
TGI [7]: > 100 µM
TGI [8]: > 100 µM
TGI [10]: > 100 µM
TGI [11]: > 100 µM
TGI [54]: > 100 µM
TGI [12]: > 100 µM
TGI [13]: > 100 µM
TGI [14]: 61.7 µM
TGI [15]: 73.2 µM
TGI [16]: > 100 µM
TGI [17]: > 100 µM
TGI [55]: > 100 µM
TGI [56]: > 100 µM
TGI [18]: > 100 µM
TGI [19]: > 100 µM
TGI [21]: > 100 µM
TGI [22]: 38.4 µM
TGI [23]: 16.8 µM
TGI [24]: > 100 µM
TGI [25]: > 100 µM
TGI [26]: > 100 µM
TGI [27]: > 100 µM
TGI [28]: 52.1 µM
TGI [29]: > 100 µM
TGI [30]: 84 µM
TGI [57]: > 100 µM
TGI [31]: > 100 µM
TGI [32]: > 100 µM
TGI [33]: > 100 µM
TGI [35]: > 100 µM
TGI [36]: > 100 µM
TGI [37]: > 100 µM
TGI [38]: > 100 µM
TGI [39]: > 100 µM
TGI [40]: > 100 µM
TGI [41]: > 100 µM
TGI [42]: 96.9 µM
TGI [43]: 72.3 µM
TGI [44]: > 100 µM
TGI [45]: > 100 µM
TGI [47]: > 100 µM
TGI [48]: > 100 µM
TGI [49]: > 100 µM
TGI [58]: > 100 µM
TGI [50]: > 100 µM
TGI [51]: > 100 µM
TGI [52]: > 100 µM
